As usually defined, the IC50 is the midpoint of a concentration-inhibition curve.

Like-named read-outs stand apart in the source and are kept apart here.

This assay deals with human DGAT2 (Homo sapiens (Human), UniProt Q96PD7). Kind of assay: DGAT2 Enzymatic Activity Assay. As to conditions: 13C18-triolein product by LC/MS/MS.
[1] abbreviates: read-out: Human DGAT2 IC50, hDGAT2 membrane prep from Sf-9 cells.
Where [2] appears, read: Human DGAT2 IC50, hDGAT2 membrane prep from Sf-9 cells.

Sequence of human DGAT2 (Q96PD7 whole entry): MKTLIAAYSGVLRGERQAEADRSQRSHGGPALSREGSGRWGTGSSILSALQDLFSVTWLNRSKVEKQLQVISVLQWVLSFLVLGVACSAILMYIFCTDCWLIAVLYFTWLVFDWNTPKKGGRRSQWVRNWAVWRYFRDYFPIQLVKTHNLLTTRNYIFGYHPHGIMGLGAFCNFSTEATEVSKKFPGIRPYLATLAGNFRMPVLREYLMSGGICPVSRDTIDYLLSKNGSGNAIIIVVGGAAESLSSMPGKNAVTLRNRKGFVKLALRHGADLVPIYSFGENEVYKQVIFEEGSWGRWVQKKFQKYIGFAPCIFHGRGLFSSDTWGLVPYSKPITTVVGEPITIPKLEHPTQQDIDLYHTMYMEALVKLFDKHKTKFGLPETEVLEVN
Description: Sf-9 insect cells were maintained in Grace's insect cell culture medium with 10% heated-inactivated fetal bovine serum, 1% Pluronic F-68 and 0.14 μg/ml Kanamycine sulfate at 27° C. in a shaker incubator. After infection with untagged baculovirus expressing human DGAT2 (hDGAT2) at multiplicity of infection (MOI) 3 for 48 hours, cells were harvested. Cell pellets were suspended in buffer containing 10 mM Tris-HCl pH 7.5, 1 mM EDTA, 250 mM sucrose and Complete Protease Inhibitor Cocktail (Sigma Aldrich), and sonicated on ice. Cell debris were removed by centrifugation at 2000×g for 15 minutes. Membrane fractions were isolated by ultracentrifugation (100,000×g), resuspended in the same buffer, and frozen (−80° C.) for later use. The protein concentration was determined with the Pierce™ BCA Protein Assay Kit (Thermo Fisher Scientific).
LC/MS/MS analyses were performed using Thermal Fisher's LX4-TSQ Vantage system. This system consists of an Agilent binary high-performance liquid chromatography (HPLC) pump and a TSQ Vantage triple quadrupole MS/MS instrument. For each sample, 2 μL samples from the top organic layer of in-plate liquid-liquid extraction were injected onto a Thermo Betabasic C4 column (2.1 mm×20 mm, 5 μm particle size). The samples were then eluted using the following conditions; mobile phase: Isopropanol: acetonitrile/10 mM ammonium formate=50/35/15 (v/v/v), flow rate: 0.8 mL/min, temperature: 25° C. Data was acquired in positive mode using a heated electrospray ionization (HESI) interface. […] The peak area was integrated by Xcalibur Quan software. The ratio between the ^13C18 triolein generated in the reaction and spiked in internal standard ^13C21-triolein was used to generate percentage inhibition and IC50 values. […] DGAT2 activity was determined by measuring the amount of enzymatic product ^13C18-triolein (^13C-1,2,3-Tri(cis-9-octadecenoyl)glycerol) using the membrane prep mentioned above. The assay was carried out in ABgene 384-well assay plates in a final volume of 25 μL at rt.

For the molecule `Cn1c(C(=O)NC2(C)CCS(=O)(=O)CC2)nc2ccc(OCc3ncc(F)cc3OCC(F)(F)F)nc21` [Example 59, 5-[[5-Fluoro-3-(2,2,2-trifluoroethoxy)-2-pyridyl]methoxy]-3-methyl-N-(4-methyl-1,1-dioxo-thian-4-yl)imidazo[4,5-b]pyridine-2-carboxamide], under setting [1], the IC50 is 2.8 nM.

In the case of `CCC(COc1ccc2nc(C(=O)NC3(C)CCS(=O)(=O)CC3)n(C)c2n1)OCC(F)F` (stereo not shown) [Example 60, 5-[2-(2,2-Difluoroethoxy)butoxy]-3-methyl-N-(4-methyl-1,1-dioxo-thian-4-yl)imidazo[4,5-b]pyridine-2-carboxamide], the midpoint of inhibition under setting [2], the IC50, lay at 3 nM.

`CCC(COc1ccc2nc(C(=O)NC3(C)CCS(=O)(=O)CC3)n(C)c2n1)OCC(C)(F)F` (stereo not shown) [Example 61, 5-[2-(2,2-difluoropropoxy)butoxy]-3-methyl-N-(4-methyl-1,1-dioxo-thian-4-yl)imidazo[4,5-b]pyridine-2-carboxamide]: the concentration for half-maximal inhibition (IC50) under setting [1] is 44 nM.

Take `Cn1c(C(=O)NC2(C)CCS(=O)(=O)CC2)nc2cnc(Oc3ncc(Cl)cc3OCC(F)F)cc21` [Example 66, 6-((5-Chloro-3-(2,2-difluoroethoxy)pyridin-2-yl)oxy)-1-methyl-N-(4-methyl-1,1-dioxidotetrahydro-2H-thiopyran-4-yl)-1H-imidazo[4,5-c]pyridine-2-carboxamide]: it took 16 nM to reach half-maximal inhibition under setting [2] (IC50).

In the case of `Cn1c(C(=O)NC2(C)CCS(=O)(=O)CC2)nc2cnc(Oc3ncc(Cl)cc3OCC(C)(F)F)cc21` [Example 67, 6-[[5-chloro-3-(2,2-difluoropropoxy)-2-pyridyl]oxy]-1-methyl-N-(4-methyl-1,1-dioxo-thian-4-yl)imidazo[4,5-c]pyridine-2-carboxamide], the IC50 under setting [1] was 24 nM.

For `Cn1c(C(=O)NC2(C)CCS(=O)(=O)CC2)nc2cnc(Oc3ncc(F)cc3OCC(F)(F)F)cc21` [Example 68, 6-[[5-fluoro-3-(2,2,2-trifluoroethoxy)-2-pyridyl]oxy]-1-methyl-N-(4-methyl-1,1-dioxo-thian-4-yl)imidazo[4,5-c]pyridine-2-carboxamide], under setting [1], the IC50 is 27 nM.

Turning to `Cn1c(C(=O)NC2(C)CCS(=O)(=O)CC2)nc2cnc(Oc3nccnc3OCC(F)(F)F)cc21` [Example 69, 1-methyl-N-(4-methyl-1,1-dioxo-thian-4-yl)-6-[3-(2,2,2-trifluoroethoxy)pyrazin-2-yl]oxy-imidazo[4,5-c]pyridine-2-carboxamide], under setting [1], the 50% inhibitory concentration (IC50) is 105 nM.

On to `Cn1c(C(=O)NC2(C)CS(=O)(=O)C2)nc2cnc(Oc3ncc(Cl)cc3OCC(F)F)cc21` [Example 70, 6-[[5-chloro-3-(2,2-difluoroethoxy)-2-pyridyl]oxy]-1-methyl-N-(3-methyl-1,1-dioxo-thietan-3-yl)imidazo[4,5-c]pyridine-2-carboxamide], for which the IC50 under setting [1] was found to be 11 nM.

In the case of `Cn1c(C(=O)NC2(C)CS(=O)(=O)C2)nc2cnc(Oc3ncc(F)cc3OCC(F)F)cc21` [Example 71, 6-[[3-(2,2-difluoroethoxy)-5-fluoro-2-pyridyl]oxy]-1-methyl-N-(3-methyl-1,1-dioxo-thietan-3-yl)imidazo[4,5-c]pyridine-2-carboxamide], under setting [1], the IC50 came out at 269 nM.

On to `Cn1c(C(=O)NC2(C)CCS(=O)(=O)CC2)nc2cnc(Oc3ncc(F)cc3OCC(F)F)cc21` [Example 72, 6-[[3-(2,2-difluoroethoxy)-5-fluoro-2-pyridyl]oxy]-1-methyl-N-(4-methyl-1,1-dioxo-thian-4-yl)imidazo[4,5-c]pyridine-2-carboxamide], for which, under setting [1], the IC50 worked out at 6.9 nM.

As to `Cc1cnc(Oc2cc3c(cn2)nc(C(=O)NC2(C)CCS(=O)(=O)CC2)n3C)c(OCC(F)F)c1` [Example 73, 6-[[3-(2,2-difluoroethoxy)-5-methyl-2-pyridyl]oxy]-1-methyl-N-(4-methyl-1,1-dioxo-thian-4-yl)imidazo[4,5-c]pyridine-2-carboxamide], under setting [1], the IC50 was 9.1 nM.

For `Cc1nc(Oc2ncc(Cl)cc2OCC(F)F)cc2c1nc(C(=O)NC1(C)CCS(=O)(=O)CC1)n2C` [Example 74, 6-[5-chloro-3-(2,2-difluoroethoxy)pyridin-1-ium-2-yl]oxy-1,4-dimethyl-N-(4-methyl-1,1-dioxo-thian-4-yl)imidazo[4,5-c]pyridine-2-carboxamide], under setting [1], the 50% inhibitory concentration (IC50) amounted to 14 nM.

As to `Cn1c(C(=O)N[C@H]2CCCC(F)(F)[C@@H]2O)nc2cnc(Oc3ncc(Cl)cc3OCC(F)F)cc21` [Example 75, 6-[[5-chloro-3-(2,2-difluoroethoxy)-2-pyridyl]oxy]-N-[(1S,2R)-3,3-difluoro-2-hydroxy-cyclohexyl]-1-methyl-imidazo[4,5-c]pyridine-2-carboxamide], the IC50 under setting [1] came to 10 nM.

Regarding `Cn1c(C(=O)NC2(C)CCS(=O)(=O)CC2)nc2cnc(Oc3ncc(Cl)cc3OCC(F)F)c(F)c21` [Example 76, 6-[[5-Chloro-3-(2,2-difluoroethoxy)-2-pyridyl]oxy]-7-fluoro-1-methyl-N-(4-methyl-1,1-dioxo-thian-4-yl)imidazo[4,5-c]pyridine-2-carboxamide], under setting [2], inhibition was half-maximal at 3.3 nM (IC50).

Regarding `Cn1c(C(=O)NC2(C)CCS(=O)(=O)CC2)nc2cnc(Oc3ncc(F)cc3OCC(F)(F)F)c(F)c21` [Example 77, 7-fluoro-6-[[5-fluoro-3-(2,2,2-trifluoroethoxy)-2-pyridyl]oxy]-1-methyl-N-(4-methyl-1,1-dioxo-thian-4-yl)imidazo[4,5-c]pyridine-2-carboxamide], the IC50 under setting [1] was 48 nM.

In the case of `Cc1c(Oc2ncc(Cl)cc2OCC(F)F)ncc2nc(C(=O)NC3(C)CCS(=O)(=O)CC3)n(C)c12` [Example 78, 6-[[5-Chloro-3-(2,2-difluoroethoxy)-2-pyridyl]oxy]-1,7-dimethyl-N-(4-methyl-1,1-dioxo-thian-4-yl)imidazo[4,5-c]pyridine-2-carboxamide], under setting [2], the half-inhibitory concentration (IC50) was determined as 3.9 nM.

On to `Cc1c(Oc2ncc(F)cc2OCC(F)(F)F)ncc2nc(C(=O)NC3(C)CCS(=O)(=O)CC3)n(C)c12` [Example 79, 6-[[5-fluoro-3-(2,2,2-trifluoroethoxy)-2-pyridyl]oxy]-1,7-dimethyl-N-(4-methyl-1,1-dioxo-thian-4-yl)imidazo[4,5-c]pyridine-2-carboxamide], for which the half-maximal inhibitory concentration (IC50) under setting [1] amounted to 58 nM.

Consider `Cn1c(C(=O)NC2(C)CCS(=O)(=O)CC2)nc2cnc(OCc3ncc(Cl)cc3OCC(F)F)cc21` [Example 80, 6-((5-Chloro-3-(2,2-difluoroethoxy)pyridin-2-yl)methoxy)-1-methyl-N-(4-methyl-1,1-dioxidotetrahydro-2H-thiopyran-4-yl)-1H-imidazo[4,5-c]pyridine-2-carboxamide], for which half-maximal inhibition under setting [2] (IC50) was put at 30 nM.

`Cn1c(C(=O)NC2(C)CCS(=O)(=O)CC2)nc2cnc(OCc3ncc(F)cc3OCC(F)(F)F)cc21` [Example 81, 6-[[5-Fluoro-3-(2,2,2-trifluoroethoxy)-2-pyridyl]methoxy]-1-methyl-N-(4-methyl-1,1-dioxo-thian-4-yl)imidazo[4,5-c]pyridine-2-carboxamide]: under setting [1], the concentration for half-maximal inhibition (IC50) amounted to 262 nM.

Under setting [2], `Cn1c(C(=O)NC2(C)CCS(=O)(=O)CC2)nc2ncc(Oc3ncc(Cl)cc3OCC(F)F)cc21` [Example 82, 6-[[5-Chloro-3-(2,2-difluoroethoxy)-2-pyridyl]oxy]-1-methyl-N-(4-methyl-1,1-dioxo-thian-4-yl)imidazo[4,5-b]pyridine-2-carboxamide] gave an IC50 of 1.2 nM.

Take `Cn1c(C(=O)NC2(C)CCS(=O)(=O)CC2)nc2ncc(Oc3ncc(F)cc3OCC(F)(F)F)cc21` [Example 83, 6-[[5-fluoro-3-(2,2,2-trifluoroethoxy)-2-pyridyl]oxy]-1-methyl-N-(4-methyl-1,1-dioxo-thian-4-yl)imidazo[4,5-b]pyridine-2-carboxamide]: the concentration for half-maximal inhibition (IC50) under setting [1] came to 12 nM.

Under setting [2], `Cc1c(Oc2ncc(Cl)cc2OCC(F)F)cnc2nc(C(=O)NC3(C)CCS(=O)(=O)CC3)n(C)c12` [Example 84, 6-[[5-Chloro-3-(2,2-difluoroethoxy)-2-pyridyl]oxy]-1,7-dimethyl-N-(4-methyl-1,1-dioxo-thian-4-yl)imidazo[4,5-b]pyridine-2-carboxamide] came in with a concentration for half-maximal inhibition (IC50) of 7.8 nM.

Take `Cc1c(Oc2ncc(F)cc2OCC(F)(F)F)cnc2nc(C(=O)NC3(C)CCS(=O)(=O)CC3)n(C)c12` [Example 85, 6-[[5-fluoro-3-(2,2,2-trifluoroethoxy)-2-pyridyl]oxy]-1,7-dimethyl-N-(4-methyl-1,1-dioxo-thian-4-yl)imidazo[4,5-b]pyridine-2-carboxamide]: the concentration for half-maximal inhibition (IC50) under setting [1] turned out to be 175 nM.

As to `Cc1nc2nc(C(=O)NC3(C)CCS(=O)(=O)CC3)n(C)c2cc1Oc1ncc(Cl)cc1OCC(F)F` [Example 86, 6-[[5-Chloro-3-(2,2-difluoroethoxy)-2-pyridyl]oxy]-1,5-dimethyl-N-(4-methyl-1,1-dioxo-thian-4-yl)imidazo[4,5-b]pyridine-2-carboxamide], it took 39 nM to reach half-maximal inhibition under setting [2] (IC50).

`Cc1nc2nc(C(=O)NC3(C)CCS(=O)(=O)CC3)n(C)c2cc1Oc1ncc(F)cc1OCC(F)(F)F` [Example 87, 6-[[5-fluoro-3-(2,2,2-trifluoroethoxy)-2-pyridyl]oxy]-1,5-dimethyl-N-(4-methyl-1,1-dioxo-thian-4-yl)imidazo[4,5-b]pyridine-2-carboxamide]: the IC50 under setting [1] is 25 nM.

With `Cn1c(C(=O)NC2(C)CCS(=O)(=O)CC2)nc2cnc(Oc3ncc(Cl)cc3OCC(F)F)nc21` [Example 88, 2-[[5-Chloro-3-(2,2-difluoroethoxy)-2-pyridyl]oxy]-9-methyl-N-(4-methyl-1,1-dioxo-thian-4-yl)purine-8-carboxamide], under setting [2], the half-maximal inhibitory concentration (IC50) was 58 nM.

With `Cn1c(C(=O)NC2(C)CCS(=O)(=O)CC2)nc2cnc(Oc3ncc(F)cc3OCC(F)(F)F)nc21` [Example 89, 2-[[5-fluoro-3-(2,2,2-trifluoroethoxy)-2-pyridyl]oxy]-9-methyl-N-(4-methyl-1,1-dioxo-thian-4-yl)purine-8-carboxamide], under setting [1], the IC50 was found to be 25 nM.

As to `Cn1c(C(=O)NC2(C)CCS(=O)(=O)CC2)nc2ncc(Oc3ncc(Cl)cc3OCC(F)F)nc21` [Example 90, 6-((5-Chloro-3-(2,2-difluoroethoxy)pyridin-2-yl)oxy)-1-methyl-N-(4-methyl-1,1-dioxidotetrahydro-2H-thiopyran-4-yl)-1H-imidazo[4,5-b]pyrazine-2-carboxamide], the half-maximal inhibitory concentration (IC50) under setting [2] came to 4.1 nM.
